Assay results as given in PubChem BioAssay (NCI).
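Values below derive from 48-hour exposures of cells grown in 96-well plates, with endpoints linearly interpolated between the two concentrations bracketing the appropriate inhibition level. TGI is the concentration that stops growth completely.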

Assays:
Experiment in all cases: NCI anticancer screen, dose series, 48 h
[1] = system: A498 renal
[2] = system: A549 NSCLC
[3] = system: ACHN renal
[4] = system: BT-549 breast
[5] = system: CAKI-1 renal
[6] = system: CCRF-CEM leukemia
[7] = system: COLO 205 colon
[8] = system: DU-145 prostate
[9] = system: EKVX NSCLC
[10] = system: HCT-116 colon
[11] = system: HCT-15 colon
[12] = system: HL-60(TB) leukemia
[13] = system: HOP-62 NSCLC
[14] = system: HOP-92 NSCLC
[15] = system: HS 578T breast
[16] = system: HT29 colon
[17] = system: IGROV1 ovarian
[18] = system: K-562 leukemia
[19] = system: KM12 colon
[20] = system: LOX IMVI melanoma
[21] = system: M14 melanoma
[22] = system: MALME-3M melanoma
[23] = system: MCF7 breast
[24] = system: MDA-MB-231 breast
[25] = system: MDA-MB-435
[26] = system: MDA-N
[27] = system: MOLT-4 leukemia
[28] = system: NCI-H226 lung
[29] = system: NCI-H23 lung
[30] = system: NCI-H460 lung
[31] = system: NCI-H522 lung
[32] = system: NCI/ADR-RES ovarian
[33] = system: OVCAR-3 ovarian
[34] = system: OVCAR-4 ovarian
[35] = system: OVCAR-5 ovarian
[36] = system: OVCAR-8 ovarian
[37] = system: PC-3 prostate
[38] = system: RPMI-8226 leukemia
[39] = system: RXF 393 renal
[40] = system: SF-268 CNS
[41] = system: SF-295 CNS
[42] = system: SF-539 CNS
[43] = system: SK-MEL-2 melanoma
[44] = system: SK-MEL-28 melanoma
[45] = system: SK-MEL-5 melanoma
[46] = system: SK-OV-3 ovarian
[47] = system: SN12C renal
[48] = system: SNB-19 CNS
[49] = system: SNB-75 CNS
[50] = system: SR leukemia
[51] = system: SW-620 colon
[52] = system: T-47D breast
[53] = system: TK-10 renal
[54] = system: U251 CNS
[55] = system: UACC-257 melanoma
[56] = system: UACC-62 melanoma
[57] = system: UO-31 renal
[58] = system: 786-0 renal
[59] = system: HCC-2998 colon

CCCCN1CN2C(=O)C(C(=O)OCC)C(=O)c3sc4nc(SC)nc1c4c32 (stereo not given)
TGI [1]: 16.8 µM
TGI [2]: 39.9 µM
TGI [3]: 30.7 µM
TGI [4]: 30.6 µM
TGI [5]: 32.9 µM
TGI [6]: 83.9 µM
TGI [7]: 35.5 µM
TGI [8]: 35.4 µM
TGI [9]: 32.2 µM
TGI [10]: 30.6 µM
TGI [11]: 38 µM
TGI [12]: > 100 µM
TGI [13]: 30.5 µM
TGI [14]: 30.5 µM
TGI [15]: 19.9 µM
TGI [16]: 40.5 µM
TGI [17]: 33.5 µM
TGI [18]: 77.9 µM
TGI [19]: 36 µM
TGI [20]: 38.1 µM
TGI [21]: 40.1 µM
TGI [22]: 30.2 µM
TGI [23]: 39.9 µM
TGI [24]: 32.6 µM
TGI [25]: 34 µM
TGI [26]: 32.3 µM
TGI [27]: 66.3 µM
TGI [28]: 34 µM
TGI [29]: 33.6 µM
TGI [30]: 40.2 µM
TGI [31]: 35.4 µM
TGI [32]: 37.1 µM
TGI [33]: 34.6 µM
TGI [34]: 33.4 µM
TGI [35]: 32.6 µM
TGI [36]: 36.8 µM
TGI [37]: 39.5 µM
TGI [38]: 42.7 µM
TGI [39]: 38.5 µM
TGI [40]: 39.8 µM
TGI [41]: 30.8 µM
TGI [42]: 33.8 µM
TGI [43]: 36.6 µM
TGI [44]: 34 µM
TGI [45]: 24.8 µM
TGI [46]: 31.7 µM
TGI [47]: 34.1 µM
TGI [48]: 34.8 µM
TGI [49]: 35.7 µM
TGI [50]: 67 µM
TGI [51]: 35.6 µM
TGI [52]: 42.7 µM
TGI [53]: 28.4 µM
TGI [54]: 33.7 µM
TGI [55]: 35.8 µM
TGI [56]: 31.5 µM
TGI [57]: 37.4 µM

NC(N)=NS(=O)(=O)c1ccc(NNc2c3ccccc3nc3c(C(=O)Nc4ccc(S(=O)(=O)N=C(N)N)cc4)cccc23)cc1
TGI [58]: > 100 µM
TGI [2]: > 100 µM
TGI [3]: > 100 µM
TGI [4]: > 100 µM
TGI [5]: > 100 µM
TGI [6]: 60.1 µM
TGI [7]: > 100 µM
TGI [8]: > 100 µM
TGI [9]: 95.8 µM
TGI [59]: > 100 µM
TGI [10]: > 100 µM
TGI [11]: > 100 µM
TGI [12]: 88.8 µM
TGI [13]: > 100 µM
TGI [14]: > 100 µM
TGI [15]: > 100 µM
TGI [16]: > 100 µM
TGI [17]: > 100 µM
TGI [18]: 63.6 µM
TGI [19]: > 100 µM
TGI [20]: > 100 µM
TGI [21]: > 100 µM
TGI [22]: 79.1 µM
TGI [23]: > 100 µM
TGI [24]: > 100 µM
TGI [25]: > 100 µM
TGI [26]: > 100 µM
TGI [27]: 80.4 µM
TGI [28]: > 100 µM
TGI [29]: > 100 µM
TGI [30]: > 100 µM
TGI [31]: 67.1 µM
TGI [32]: > 100 µM
TGI [33]: > 100 µM
TGI [34]: > 100 µM
TGI [35]: > 100 µM
TGI [36]: > 100 µM
TGI [37]: > 100 µM
TGI [38]: > 100 µM
TGI [39]: > 100 µM
TGI [40]: > 100 µM
TGI [41]: > 100 µM
TGI [42]: > 100 µM
TGI [43]: > 100 µM
TGI [44]: 89.6 µM
TGI [45]: > 100 µM
TGI [46]: > 100 µM
TGI [47]: > 100 µM
TGI [48]: > 100 µM
TGI [49]: > 100 µM
TGI [50]: > 100 µM
TGI [51]: > 100 µM
TGI [52]: > 100 µM
TGI [53]: > 100 µM
TGI [54]: > 100 µM
TGI [55]: > 100 µM
TGI [56]: > 100 µM
TGI [57]: > 100 µM
